According to PMC3813382 (The Journal of General Physiology, 2013):
Substitutions are numbered along the chain they refer to. “Also recorded” adds a separate entry of the source.

Assays:
F258A Slo2.1 channels = molecular target: T1, F258A Slo2.1 channels (Homo sapiens, UniProt Q6UVM3, F258A); experiment: Activation of ISlo2.1 by NFA, two-electrode voltage clamp in oocytes; assay type: cell-based
T1 sequence (Q6UVM3 1-1135 F258A): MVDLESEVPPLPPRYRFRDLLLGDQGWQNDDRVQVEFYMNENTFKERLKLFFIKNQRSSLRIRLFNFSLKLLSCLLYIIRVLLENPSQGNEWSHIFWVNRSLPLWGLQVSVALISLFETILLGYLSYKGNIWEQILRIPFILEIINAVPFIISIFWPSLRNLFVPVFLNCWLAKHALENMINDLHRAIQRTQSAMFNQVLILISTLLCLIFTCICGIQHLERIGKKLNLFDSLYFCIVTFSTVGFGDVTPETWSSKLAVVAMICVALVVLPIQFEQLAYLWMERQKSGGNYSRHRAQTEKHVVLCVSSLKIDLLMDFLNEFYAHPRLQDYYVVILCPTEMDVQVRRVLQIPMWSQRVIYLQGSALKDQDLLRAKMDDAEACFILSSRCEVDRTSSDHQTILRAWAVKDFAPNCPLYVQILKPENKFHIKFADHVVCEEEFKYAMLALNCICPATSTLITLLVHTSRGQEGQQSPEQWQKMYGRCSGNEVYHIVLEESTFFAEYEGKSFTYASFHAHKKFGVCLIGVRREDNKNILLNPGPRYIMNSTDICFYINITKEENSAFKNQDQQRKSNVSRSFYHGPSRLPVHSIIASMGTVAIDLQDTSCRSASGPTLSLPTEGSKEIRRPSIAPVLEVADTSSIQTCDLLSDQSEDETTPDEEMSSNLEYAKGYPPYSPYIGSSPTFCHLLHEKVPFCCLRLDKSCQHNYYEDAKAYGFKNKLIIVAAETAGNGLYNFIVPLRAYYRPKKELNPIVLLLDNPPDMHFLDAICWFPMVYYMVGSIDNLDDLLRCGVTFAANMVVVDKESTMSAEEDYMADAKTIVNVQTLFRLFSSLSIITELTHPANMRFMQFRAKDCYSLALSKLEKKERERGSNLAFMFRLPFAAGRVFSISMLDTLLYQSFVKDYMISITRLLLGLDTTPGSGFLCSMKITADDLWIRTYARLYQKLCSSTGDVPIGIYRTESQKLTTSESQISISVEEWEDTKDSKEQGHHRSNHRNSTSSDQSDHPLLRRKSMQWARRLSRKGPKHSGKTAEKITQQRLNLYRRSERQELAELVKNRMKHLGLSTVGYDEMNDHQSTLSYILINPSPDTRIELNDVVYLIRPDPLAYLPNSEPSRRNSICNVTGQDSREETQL

[1] = tested on: endogenous currents present in uninjected oocytes; experiment: Effect of NFA on uninjected oocytes; assay type: cell-based, Xenopus laevis
E275D Slo2.1 channels = molecular target: T2, E275D Slo2.1 channels (Homo sapiens, UniProt Q6UVM3, E275D); experiment: Activation of ISlo2.1 by NFA, two-electrode voltage clamp in oocytes; assay type: cell-based
T2 sequence (Q6UVM3 1-1135 E275D): T1 sequence (Q6UVM3 1-1135 F258A) with A258F, E275D

## O=C(O)c1cccnc1Nc1cccc(C(F)(F)F)c1 [NFA, niflumic acid]
F258A Slo2.1 channels
  EC50: 400 ± 50 µM
F258A Slo2.1 channels; F258A
  Hill coefficient nH of NFA activation: 1.2 ± 0.08
[1]; 1 mM NFA, I-Vt relationships
  effect on endogenous currents in uninjected oocytes: reduced
[1]; 6 mM NFA, I-Vt relationships
  effect on endogenous currents in uninjected oocytes: increased; also recorded: activated a relatively small endogenous current
[1]; NFA at concentrations up to 1 mM
  effect on endogenous currents in uninjected oocytes: slightly reduced
E275D Slo2.1 channels
  EC50: 192 µM
E275D Slo2.1 channels; E275D
  Hill coefficient nH of NFA activation: 1.08 ± 0.09
E275D Slo2.1 channels; E275D vs WT
  EC50 for E275D lower than EC50 for WT channels: 11 fold
E275D Slo2.1 channels; E275D, 3 mM NFA (maximally effective concentration)
  maximal increase in current at 0 mV: ~2.5 fold
